These results are taken from US5561154A, “Treatment of acute urinary retention” (Institut de Recherches Chimiques et Bioloques Appliquees …, priority 1995, dated 1996).

Counter-ions that a name gives are not always drawn. Like-named read-outs stand apart in the source and are kept apart here.

For series [1] the following is noted: cited from earlier work.
Series [2] can be described thus: Hepatotoxicity on administration (general statement). In kind it is in vivo. Conditions: administered iv at 50 mg or less doses.
Series [3] is described as follows: Stability in aqueous solution. The class given is physicochemical. An excerpt: In the parent application it was pointed out that DAM, the active ingredient, is effectively soluble and stable in water in the form of its hydrochloride salt. Deacetyl moxisylyte hydrochloride (DAM.HCl) is soluble up to a concentration of 10% p/v, which is the upper therapeutically acceptable concentration, in pure (i.e. distilled, bidistilled or preferably deionized) water and in aqueous solutions buffered at pH 5-7. Water solutions containing 1% p/v of deacetyl moxisylyte hydrochloride without any antioxidant and kept at pH 5, 6 and 7, are stable for 15 days at 25° C. and for 90 minutes at 121° C. […] More details regarding the solubility and stability in water of DAM.HCl are given in the parent application.

Series [4] deals with urethral and arterial pressures induced by noradrenaline. Description: Anesthetized rabbits: noradrenaline-induced increases in urethral and arterial pressure. The class given is in vivo, rabbit. To be noted: Oryctolagus cuniculus, iv, noradrenaline-induced increase, i.v. As for the experimental part:
Male White New-Zealand rabbits (weighing 3 kg each) were anesthetized with ethyl-urethane. Arterial pressure (AP) was measured with a pressure captor linked to a catheter located in the carotid; urethral pressure (UP) was determined with a pressure captor linked to a catheter introduced into the urethra and located at the level of the vesical base. The femoral vein was also catheterized for administering the products to be tested.
The increases in the urethral and arterial pressures, which were induced by noradrenaline, were determined after i.v. injections of increasing doses for periods of 3 minutes each, from 15 minutes before the injection of the α-blocking product to be tested to 15 minutes after said injection.
The results thus obtained are expressed hereinafter an inhibiting dose 50% (ID-50) which is defined as the dose of a-blocking product in the presence of which, the effect of the largest dose of noradrenaline is divided by a factor 2.

For series [5] the following is noted: pure water and aqueous solutions buffered at pH 5-7; cited from earlier work.
Series [6] has as its system increase in UP induced by electric stimulation of the hypogastric nerve. Description: Anesthetized dogs: hypogastric nerve stimulation, urethral pressure, AP and HR. In kind it is in vivo, dog. Conditions: anesthetized Beagle dogs. As for the experimental part:
Adult male Beagle dogs were anesthetized by i.v. injection of sodium barbital (30 mg/kg).
The cannulation of each carotid and urethra allowed measurement of AP and UP. By derivation of the AP signal, the heart rate (HR) was recorded.
The increase in UP was induced by electric stimulation of the hypogastric nerve distal roots (10 ms, 30 Hz, 5s, 6-10 V). That increase in UP is determined before and 15 minutes after the injection of the α-blocking agent to be tested.
The results were expressed by calculating a ID-50 defined as the dose of α-blocking agent which inhibits 50% of the effects of the hypogastric nerve stimulation on UP. The effects of said ID-50 were determined on AP and HR in order to obtain a variation percentage with respect to the initial values.

For series [7], the target named is α2 -adrenoreceptors. As to the kind of experiment: Radioligand binding, (3H)-rauwolscine, rabbit urethral membranes. Conditions: male rabbit urethral membrane preparation. As for the experimental part: (§1) α-adrenoreceptors can be by use of a ^3 H- or 125 I- labelled specific antagonist (or agonist) on membrane preparations of the concerned organ, here rabbit urethra.
(§2) A male rabbit urethral grinding was filtered then centrifugated. The filtrate thus obtained is a membrane preparation which was incubated with a radioactive ligand, namely (^125 I)-HEAT [wherein HEAT is 2-[2-(3-iodio-4-hydroxyphenyl)ethyl-aminoethyl]-tetralone for the α1 -adrenoreceptors, and (^3 H)-rauwolscine for the α2 -adrenoreceptors.
(§3) The incubations were carded out in the absence or in the presence of an increasing concentration of the product to be tested. The affinity was measured by means of the inhibition coefficient (Ki).

Series [8] concerns α1 -adrenoreceptors. Description: Radioligand binding, (125I)-HEAT, rabbit urethral membranes. As for the experimental part:
as §1, §2, §3

Series [9] relates to liver. Description: Absence of hepatotoxicity, 2-month daily i.v. injection in rats. In kind it is in vivo, rat. Conditions: male Wistar rats, 1.5 mg/kg daily i.v. for 2 months. As to the method:
Adult male Wistar rats were daily injected with 1.5 mg/kg of DAM.HCl in saline solution (i.e. the solution of Ex 1) per i.v. route for 2 months, then slaughtered.

Series [10] concerns the target T1, isolated rabbit urethra (contraction induced by noradrenaline) (Oryctolagus cuniculus, UniProt O02824).
T1 construct: from tissue; host or cells: isolated urethra of male rabbits
T1 sequence (O02824 1-466): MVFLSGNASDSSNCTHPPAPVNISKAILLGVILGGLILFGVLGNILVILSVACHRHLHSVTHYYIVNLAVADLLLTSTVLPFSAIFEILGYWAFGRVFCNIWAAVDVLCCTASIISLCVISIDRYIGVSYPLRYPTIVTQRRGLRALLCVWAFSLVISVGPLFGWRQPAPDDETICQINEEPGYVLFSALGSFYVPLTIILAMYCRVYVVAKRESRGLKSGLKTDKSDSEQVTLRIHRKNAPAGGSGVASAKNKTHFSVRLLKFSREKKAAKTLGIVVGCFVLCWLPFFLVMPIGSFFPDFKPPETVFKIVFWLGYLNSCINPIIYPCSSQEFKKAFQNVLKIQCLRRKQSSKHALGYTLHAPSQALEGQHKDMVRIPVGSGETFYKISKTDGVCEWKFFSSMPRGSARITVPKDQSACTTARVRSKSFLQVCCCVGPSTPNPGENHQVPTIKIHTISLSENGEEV
Description: Isolated rabbit urethra: antagonism of noradrenaline-induced contraction. The class given is cell-based. Conditions: against noradrenaline, isolated male rabbit urethra, 5 experiments; read-out: pA2 (converted). As to the method: After slaughtering of male rabbits, each urethra was taken out then placed into a receptacle containing a physiological saline aqueous solution, and kept at 37° C. with an oxygen/carbon oxide mixture (95/5 p/p). One end of the urethra was fixed to a pressure captor linked to a recording device for measuring the organ contractions.
Contracturing effects of noradrenaline were determined by succesive infusions of increasing […] up to the contraction corresponding to the maximal amplitude. The measures were carded out with and without DAM.HCl.
The activity of DAM.HCl was measured as a pA2 value, pA2 being here the cologarithm of the antagonist molar concentration in the presence of which the noradrenaline concentration needs to be multiplied by two to obtain the same effect in the absence of antagonist.

Take `CC(=O)Oc1cc(C(C)C)c(OCCN(C)C)cc1C` [moxisylyte, 4-[2-(dimethylamino)ethoxy]-2-methyl-5-(1methylethyl)phenol acetate, reference compound]: the “stability of solution stabilized with dimethyl-beta-cyclodextrin at 45° C.” value in series [1] (pH 5 solution, 1 mg/ml, dimethyl-beta-cyclodextrin as stabilizing agent, 45° C.) is 3 months.

With `Cc1cc(OCCN(C)C)c(C(C)C)cc1O` [DAM, 4-[2-(dimethylamino)ethoxy]-2-methyl-5-(1-methylethyl)phenol], in series [2], the hepatotoxicity i.v. result was “substantially devoid of hepatotoxicity”. In series [3] (aqueous solution), the “stability in aqueous solution” value is reported as “stable”. Also, the “degradation on sterilization of aqueous solution” value in series [3] (classical sterilization, e.g. autoclave 15 minutes at 121° C. or sterilizing filtration) was “without degradation”.

Broadly, the Ki is the dissociation constant of the complex between target and ligand, obtained from inhibition or displacement. A high value points to a looser hold on the target. For `Cc1cc(OCCN(C)C)c(C(C)C)cc1O` [DAM.HCl, Deacetyl moxisylyte hydrochloride], the ED50 amounted to 3.5 ± 0.65 mg/kg in [4] (n = 5, read-out: ID-50 i.v., AP (arterial pressure)) and 0.4 ± 0.03 mg/kg in series [4] (n = 5, read-out: ID-50 i.v., UP (urethral pressure)). The solubility (soluble up to a concentration) in series [5] was more than 10 % p/v. Besides, the “Effect of ID-50 on AP (variation percentage with respect to the initial values)” value in [6] (at the ID-50 dose) is -6%. In [6] (at the ID-50 dose), the “Effect of ID-50 on HR (variation percentage with respect to the initial values)” value is on record as -5%. The “ID-50, effect on UP” value in series [6] (hypogastric nerve stimulation, 15 minutes after injection, in mg/kg) was 0.05 ± 0.01. Moreover, the inhibition constant Ki in series [7] was 637 ± 94 nM; in series [8] (male rabbit urethral membrane preparation, (125I)-HEAT), 109 ± 20 nM. In addition, the “times more active on α1 -adrenoreceptors than on α2 -adrenoreceptors” value in [8] (from Ki values of table II) is reported as “six”. Further, the “hepatotoxicity (study of organs, analysis of the liver)” value in series [9] is on record as “no sign of hepatotoxicity”. Further, in series [10], the Kb was 3.16 nM. For the same compound, the “stability of water solution at 25° C.” value in [1] (1% p/v, no antioxidant, pH 5, 6 and 7, 25° C.) is given as 15 days. Also, in series [1] (1% p/v, no antioxidant, pH 5, 6 and 7, 121° C.), the “stability of water solution at 121° C.” value is 90 min. The “stability of water solution with Na2 SO3 at 95° C.” value in series [1] (1% p/v, pH 5, 6 and 7, sodium sulfite 0.1 p/v, 95° C., no coloration) is listed as 15 days.
